This note sets out measurements from patent EP1310258A1, “Enantiomers of steroids for the enhancement of memory and cognitive function” (Baulieu, Etienne-Emile, priority 2001, dated 2003).

The structures appear in SMILES notation. Counter-ions that a name gives are not always drawn.

Series [1] has as its system NMDA receptor. Briefly: Coadministration of steroids with the NMDA receptor antagonist AP5, Y-maze recognition performance, rats. It is filed as in vivo. The following applies: for memory performances when coadministered with AP5 compared to the group treated with the steroid alone: AP5 10 nmol ICV together with PREGS 0.5 nmol or ent-PREGS 0.05 nmol; for recognition performances of steroid alone compared with vehicle-controls: ICV effective doses alone (PREGS 0.5 nmol, ent-PREGS 0.05 nmol), P < 0.05. Here is the method:
(§1) The two-trial memory task based on spontaneous exploration of novelty was adapted from the ones described by Dellu et al. (1992, Brain Res., 588, 132-9) in rats and by Ladurelle et al. (2000, Brain Res., 858, 371-9) in mice.
(§2) Experiments were performed in a gray polyvinychloride Y-maze. The size of each arm was 40 cm long, 15 cm wide and 35 cm high for rats, and 30 cm long, 10 cm wide and 17 cm high for mice. The floor of the maze was covered with odor-saturated sawdust which was mixed after each trial. The maze was placed in a sound-attenuated room under dim illumination. Numerous visual cues were placed on the walls of the testing room and kept constant during the entire behavioral testing..
(§3) The test consisted of two trials, separated by a 6-h intertrial interval. During the first trial (acquisition phase), one arm of the Y-maze (subsequently called novel arm) was closed with a guillotine door, thus allowing the animal to explore only the other two arms, during 5 min and 3 min for rats and mice, respectively. During the second trial (retention phase), the animals had access to the three arms for 5 min. The time spent in each arm of the maze was recorded manually every minute. Recognition was assumed to have occurred when the animal spent more time in the novel arm compared with the familiar ones. The total number of arm visits provided a measure of general motor activity.
(§4) A between-subjects design was used where each observation was made for a separate animal. Data were reported as the amount of time spent in the novel arm relative to the total duration of visits in the three arms (novel/total x 100) during the first 3 min.
(§5) They were expressed as mean ± SEM and analyzed by using one-way ANOVA followed by Newmann-Keuls posthoc test. Significance was defined as P<0.05 or P<0.01.
(§6) The effects of the ICV injection of AP5, at ICV doses of 2 and 10 nmol in mice and rats, respectively, was studied on the memory-enhancing effects of PREGS (0.5 nmol in rats and 5.0 nmol in mice) and ent-PREGS (0.05 nmol in rats and 5.0 nmol in mice).

For series [2], the system named is NMDA receptor. The experiment in a line: Coadministration of steroids with the NMDA receptor antagonist AP5, Y-maze recognition performance, mice. Format: in vivo. The note with it: for memory performances when coadministered with AP5 compared to the group treated with the steroid alone: AP5 2 nmol ICV together with PREGS 5.0 nmol or ent-PREGS 5.0 nmol (so in the source); for recognition performances of steroid alone compared with vehicle-controls: ICV effective doses alone (PREGS 5.0 nmol, ent-PREGS 5.0 nmol as printed), P < 0.05. Here is the method: as §1, §2, §3, §4, §5, §6

Series [3] concerns the target T1, steroid sulfatase (Rattus norvegicus, UniProt P15589).
T1 sequence (P15589 20-577): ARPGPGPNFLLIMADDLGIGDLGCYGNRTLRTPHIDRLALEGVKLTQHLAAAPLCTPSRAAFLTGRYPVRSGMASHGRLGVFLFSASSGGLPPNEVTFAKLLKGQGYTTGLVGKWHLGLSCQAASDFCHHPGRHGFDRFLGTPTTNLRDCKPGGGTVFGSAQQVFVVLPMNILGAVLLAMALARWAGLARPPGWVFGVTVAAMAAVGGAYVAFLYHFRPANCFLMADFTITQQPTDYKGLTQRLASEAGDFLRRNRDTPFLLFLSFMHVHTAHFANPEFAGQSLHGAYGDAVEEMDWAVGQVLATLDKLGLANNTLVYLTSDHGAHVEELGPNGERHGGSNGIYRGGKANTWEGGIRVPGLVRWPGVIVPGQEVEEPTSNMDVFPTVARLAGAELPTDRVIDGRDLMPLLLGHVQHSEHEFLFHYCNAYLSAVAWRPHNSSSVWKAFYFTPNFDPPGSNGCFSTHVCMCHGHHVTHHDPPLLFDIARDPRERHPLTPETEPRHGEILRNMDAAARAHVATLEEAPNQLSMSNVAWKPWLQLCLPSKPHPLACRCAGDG
Briefly: In vitro metabolism: steroid sulfatase activity by rat brain microsomes. Format: in vitro ADME. The arrangement: 200 µg microsomal proteins prepared from rat brain or liver; from tissue; host or cells: rat liver microsomes. The note with it: 8 µg steroid with 200 µg rat brain microsomal proteins, 37°C, 1 hour. Here is the method:
(§7) The metabolism of PREGS and ent-PREGS was examined after incubation of 8 µg of each steroid with 200 µg microsomal proteins prepared from rat brain or liver, at 37°C for lhour, and the unconjugated PREG was quantified in the brain by gas-chromatography-mass spectrometry (Liere et al., 2000, J. Chromatogr. B Biomed. Sci. Appl. 2000,739:301-12)
(§8) The metabolism of DHEAS and ent-DHEAS was examined after incubation of 8 µg of each steroid with 200 µg microsomal proteins prepared from rat brain or liver, at 37°C for 1hour, and the unconjugated DHEA was quantified in the brain by gas-chromatography-mass spectrometry (Liere et al., 2000, J. Chromatogr. B Biomed. Sci. Appl. 2000,739:301-12)

The target of series [4] is T1, steroid sulfatase. The experiment in a line: In vitro metabolism: steroid sulfatase activity by rat liver microsomes. Format: in vitro ADME. The arrangement: 200 µg microsomal proteins prepared from rat brain or liver; from tissue; host or cells: rat liver microsomes. The following applies: 37°C, 1 hour; for formation of DHEA (metabolism by sulfatase) / formation of PREG (metabolism by sulfatase): 8 µg steroid with 200 µg rat liver microsomal proteins. Here is the method: as §7, §8
(Microsomes from liver hold many membrane-bound enzymes, among them those of drug oxidation.)

For the next series, the system named is Swiss mice. The experiment in a line: Two-trial memory task (spatial recognition) in a Y-maze after ICV administration, mice. The following applies: ICV immediately after acquisition, 6-h intertrial interval, Newman-Keuls (PREGS P<0.05; ent-PREGS P<0.01). It is filed as in vivo. The protocol: (§9) Male Sprague-Dawley rats and Swiss mice (Janvier, Le Genest St-Isle, France) 2 months of age and weighing 250-300g for rats and 30-32g for mice at the time of surgery were used. They were grouped-housed in a temperature (22°C ± 1°C) and humidity (50% ± 5%) controlled room. They were maintained on a 12-h light/12-h dark (08.00-20.00) schedule and had access to food and water ad libitum.
(§10) Rats were anaesthesized with a mixture of 5% ketamine (Imalgène 1000, Merial, France) and 0.1% acepromazine (Vetranquil 1%,) in saline, administered i.p. at 1.5 ml/kg. Mice were anesthetized with a mixture of 0.5% ketamine and 0.1% xylazine, under the volume of 15 ml/kg.
(§11) Animals were mounted in a stereotaxic and implanted with unilateral stainless steel cannula guides (23-gauge, 7 mm long) above the lateral ventricle, according to the coordinates from the atlas of rats and mice. Cannulas were secured to the skull with stainless steel screws and dental cement.
Animals were used for experiments after a 7-day postrecovery period. Each animal was handled daily for 3 days before the experiments and on the day before each experiment, cannula function was confirmed by gravity flow of isotonic saline. […]
(§12) The test consisted of two trials, separated by a 6-h intertrial interval. […] The time spent in each arm of the maze was recorded manually every minute. […]

For a further series, the system named is Male Sprague-Dawley rats. Briefly: Two-trial memory task (spatial recognition) in a Y-maze after ICV administration, rats. It is filed as in vivo. The note with it: ICV immediately after acquisition, 6-h intertrial interval, Newman-Keuls P<0.05. Here is the method: as §9, §10, §11
Animals were used for experiments after a 7-day postrecovery period. Each animal was handled daily for 3 days before the experiments and on the day before each experiment, cannula function was confirmed by gravity flow of isotonic saline.
PREGS was obtained from Steraloïds (Newport, RI, Etats-Unis); the steroid enantiomers ent-SPREG et ent-SDHEA were synthesized as previously described (Nilsson et al., 1998, op. cit.). All compounds were dissolved in […] (vehicle)
PREGS was administered iCV at doses of 0 (vehicle), 0.05, 0.25, 0.5, 2.5, 5.0 and 12.5 nmol in rats and of 0 (vehicle), 0.05, 0.25, 0.5, 2.5, 5.0 and 12.5 nmol mice
ent-PREGS was injected ICV at doses of 0 (vehicle), 0.025, 0.05, 0.25, 0.5 nmol in rats and 0 (vehicle), 0.025, 0.05, 0.25, 0.5 and 2.5 nmol in mice.
ent-SDHEA was administered iCV at doses of 0; 0,25; 0,25 nmol in rats.
Drug and control-vehicle solutions were injected unilaterally through the cannula guide. […]
as §12

The target of series [5] is T1, steroid sulfatase. Briefly: In vivo metabolism in rat brain: steroid sulfatase activity (GC-MS of unconjugated PREG). The note with it: 5 min after ICV administration of 1µg. The protocol: The metabolism of PREGS and ent-PREGS was investigated 5 min after ICV administration of 1µg of each compound in rat and the unconjugated PREG was quantified in the brain by gas-chromatography-mass spectrometry (Liere et al., 2000, J. Chromatogr. B Biomed Sci. Appl. 2000,739:301-12).

[6] abbreviates: rat liver versus brain microsomes, 8 µg steroid, 200 µg protein.

As to `NC(CCCP(=O)(O)O)C(=O)O` (stereo not drawn) [AP5], the “recognition performance of AP5-treated group versus vehicle-control” value in the series with NMDA receptor [1] (AP5 alone 10 nmol ICV, P > 0.05) is reported as “did not significantly differ”; in the series on NMDA receptor [2] (AP5 alone 2 nmol ICV, P > 0.05), “did not significantly differ”.

As for `C[C@]12CC[C@H](OS(=O)(=O)O)CC1=CC[C@@H]1[C@@H]2CC[C@]2(C)C(=O)CC[C@@H]12` [DHEAS, dehydroepiandrosterone sulfate], the “formation of DHEA (metabolism by sulfatase)” value at steroid sulfatase [3] and on steroid sulfatase [4] was “metabolized into DHEA” each time. The “levels of DHEA in the liver relative to the brain” value on steroid sulfatase [4] (setting [6]) was determined as 5 times.

Take `CC(=O)C1CCC2C3CC=C4CC(OS(=O)(=O)O)CCC4(C)C3CCC12C` (stereo not drawn) [PREGS, pregnenolone sulfate]: the “memory performances when coadministered with AP5 compared to the group treated with the steroid alone” value in the series with NMDA receptor [1] and with NMDA receptor [2] was “significantly reduced” throughout. Also, the “recognition performances of steroid alone compared with vehicle-controls” value with NMDA receptor [1] and in the series with NMDA receptor [2] was “significantly increased” throughout. Moreover, the “formation of PREG (metabolism by sulfatase)” value at steroid sulfatase [3] and on steroid sulfatase [4] was “metabolized into PREG” in each case. For the same molecule, the “dose at which % time spent in the novel arm / memory performance was significantly increased relative to vehicle-control” value with Swiss mice is 5.0 nmol; in the series with Male Sprague-Dawley rats, 0.5 nmol. In addition, the “brain content of PREG compared with saline-injected control rats” value on steroid sulfatase [5] is “signicantly increased”. Further, at steroid sulfatase [4] (setting [6]), the “levels of PREG in the liver relative to the brain” value was found to be 4 times.

As for `C[C@@]12CC[C@@H]3[C@H](CC=C4C[C@H](OS(=O)(=O)O)CC[C@]43C)[C@H]1CCC2=O` [ent-DHEAS], the “formation of DHEA (metabolism by sulfatase)” value on steroid sulfatase [3] and on steroid sulfatase [4] was “undectectable” in each case. Also, the “dose at which % time spent in the novel arm / memory performance was significantly increased relative to vehicle-control” value in the series on Male Sprague-Dawley rats is reported as 0,025 nmol.

Regarding `CC(=O)[C@@H]1CC[C@@H]2[C@H]3CC=C4C[C@H](OS(=O)(=O)O)CC[C@@]4(C)[C@@H]3CC[C@]21C` [ent-PREGS], the “memory performances when coadministered with AP5 compared to the group treated with the steroid alone” value in the series on NMDA receptor [1] and in the series on NMDA receptor [2] was “did not perform differently” in each case. The “recognition performances of steroid alone compared with vehicle-controls” value with NMDA receptor [1] and in the series on NMDA receptor [2] was “significantly increased” each time. The “formation of PREG (metabolism by sulfatase)” value at steroid sulfatase [3] and on steroid sulfatase [4] was “undectectable” throughout. For the same molecule, the “dose at which % time spent in the novel arm / memory performance was significantly increased relative to vehicle-control” value is 0.5 nmol in the series with Swiss mice and 0.05 nmol in the series with Male Sprague-Dawley rats. Moreover, the “brain content of PREG compared with saline-injected control rats” value on steroid sulfatase [5] is recorded as “did not significantly differ”.
